Results as given in patent publication US10766912B2 (priority 2017, dated 2020).

What was measured:
[1] = Assay Example 4: distribution in rat plasma and liver tissue; type: in vivo; conditions: 10 mg/kg intragastric; for Kp at 0.5 h / Kp at 3 h / Kp at 8 h: male, oral, liver/plasma, read-out: Ratio (L/P)
Protocol: Eighteen male rats were randomly divided into two groups of 9 rats each, fasted (free access to water) overnight, and then intragastrically administered with 10 mg/kg of Compound 1a and Compound 6b, respectively. The subject animals were sacrificed by bloodletting at 0.5 h, 3 h and 8 h after administration. About 1 mL of blood was taken, and anticoagulated with EDTA-K2. The blood samples were immediately placed in ice, and then transferred within 30 min to centrifuge and separate plasma at 4° C. and 4,000 rpm for 10 min. Meanwhile, the whole liver was taken out at the various time points, rinsed with ice-cold physiological saline, blotted dry, weighed, and prepared into a homogenate with physiological saline (W/V=1:5). All plasma and liver homogenates were collected and then immediately stored at −20° C. for testing.
The rats can be fed at 4 h after administration.
After being completely melted, all the samples were vortexed to mix evenly. 50 μL of the samples were pipetted into a 1.5 mL centrifuge tube respectively and then 300 μL of IS-D (20 ng/ml diazepam acetonitrile) solution was added to each sample (200 μL of acetonitrile was added to the blank sample). The samples were vortexed for 10 min and then centrifuged at 12,000 rpm and 4° C. for 10 min. After 80 μL of pure water was added to a 96-well plate, 80 μL of the supernatants were pipetted respectively from the centrifuge tubes to the 96-well plate, vortexed for 3 min, and then kept at 4° C. until LC-MS/MS injection analysis.

[2] = test system: HCV GT1a wild-type replicon; experiment: Assay Example 1: activity against HCV GT1a wild-type replicon; type: cell-based; conditions: Hepatitis C virus, 72 h, Huh 7 cells, 3 days, luciferase
Protocol: (§1) Cells: Huh 7 cell line and HCV GT1b/3a and GT1b/6a NS5A chimeric replicons and GT1b and GT1a wild-type replicon RNA.
(§2) Treatment of Compound: According to the assay final concentrations of the compounds in Table 2, DMSO stock solutions of the compounds were diluted and then added to a 96-well assay plate. The final concentration of DMSO was 0.5%.
(§3) The preparation of cells: After replicon plasmid DNA was linearized with a corresponding restriction enzyme, the DNA was transcribed into RNA by using T7RNA polymerase. Replicon RNA prepared by transcription in vitro was transfected into Huh-7 cells by electroporation. Transfected cells were seeded at a density of 10,000 cells per well into the 96-well assay plate containing the diluted compounds, and then the plate was placed in a 37° C. incubator with 5% CO2 and cultured for 3 days.
(§4) Drug activity assay: Luminescence signal value (RLU) was detected with Envision within 15 minutes using the luciferase assay reagent Britelite plus, and the original data (RLU) was used for the calculation of the activity of the compounds.
(§5) The activity of the compounds was calculated by using the equation below: Inhibition %=(ZPE−CPD)/(ZPE−HPE)×100%*
(§6) The cell viability percentages (Viability %) and the inhibition percentages (Inhibition %) were imported into GraphPad Prism software, respectively, and curves were fitted by using nonlinear regression method to obtain the corresponding curves of the compounds, and the cytotoxicity (CC50) thereof and inhibitory activity (EC50) values against the HCV replicon thereof.

[3] = test system: GT1a-NS5A-L31V mutant replicon; experiment: Assay Example 6: drug resistance, activity against GT1a-NS5A-L31V mutant replicon; type: cell-based, hepatitis C virus; conditions: for GT1a-NS5A-L31V Fold change: EC50 mutant versus GT1a-wt; for EC50: Hepatitis C virus, GT1A, Huh-7, 72 h, read-out: GT1a-NS5A-L31V EC50 value
Protocol: (§7) Cells: Huh-7 cells are liver cancer cell strains (from AppTec, USA), HCVGT1a wild-type replicon and GT1a-NS5A-Y93H and GT1a-NS5A-L31V mutant replicons
(§8) Treatment of Compound: According to the assay final concentrations of the compounds in Table 11, DMSO stock solutions of the compounds were diluted and then added to a 96-well assay plate. The final concentration of DMSO was 0.5%.
as §3, with “T7 RNA” for “T7RNA”, “then” for “then the plate was”
(§9) Compound activity assay: Luminescence signal value (RLU) was detected with Envision within 5 minutes by using the luciferase assay reagent Britelite plus, and the original data (RLU) was used for the calculation of the activity of the compounds.
(§10) The activity of the compounds was calculated by using the equation below: Inhibition %=(CPD−ZPE)/(HPE−ZPE)×100%*
(§11) The compound activity percentages (Inhibition %) were imported into GraphPad Prism software, and curves were fitted by using nonlinear regression method to obtain the corresponding curves of the compounds and the inhibitory activity (EC50) values against the HCV replicon thereof.

[4] = test system: HCV GT1b/3a NS5A chimeric replicon; experiment: Assay Example 1: activity against HCV GT1b/3a NS5A chimeric replicon; type: cell-based; conditions: Hepatitis C virus, Huh-7, 72 h, read-out: EC50 value GT1b/3a NS5A chimeric replicon
Protocol: as §1, §2, §3, §4, §5, §6

[5] = test system: HCV GT1a wild-type replicon; experiment: Assay Example 6: drug resistance, activity against HCV GT1a wild-type replicon; type: cell-based; conditions: Hepatitis C virus, 72 h, Huh-7 cells, transient transfection, 3 days, read-out: GT1a-wt EC50 value
Protocol: as §7, §8
as §3, with “T7 RNA” for “T7RNA”, “then” for “then the plate was”
as §9, §10, §11

[6] = test system: hepatitis C virus HCVcc (GT2a, JFH-1); experiment: Assay Example 3: activity against infective hepatitis C virus HCVcc (GT2a, JFH-1); type: cell-based; conditions: Huh-7.5.1, 72 h, read-out: EC50 Value GT2a HCVcc
Protocol: Cells: Huh7.5.1 cells and hepatitis C virus HCVcc (GT2a, JFH-1) infection system.
Treatment of Compound: According to the assay final concentrations of the compounds in Table 6, DMSO stock solutions of the compounds were diluted and then added to a 96-well assay plate. The final concentration of DMSO was 0.5%.
Viral infection: Huh7.5.1 cells were seeded in a 96-well cell culture plate, and the cells were cultured overnight at 37° C. in an incubator with 5% CO2 for later use. The compound and the HCVcc virus solution (MOI=0.1) were simultaneously added to the cells, and the virus infection was cultured for 3 days. Parallel cytotoxicity assay was identical to the method for the inhibition of the virus but without viral infection.
Drug activity assay: The activity of hRLuc was detected by the addition of Renilla luciferase assay reagent. The original data (RLU) was used for the calculation of the activity of the compounds.
The activity of the compounds was calculated by using the equation below: Inhibition %=(CPD−VC)/(CC−VC)×100%*
as §6, with “(Cell Viability” for “(Viability”, “compound activity” for “inhibition”

[7] = test system: HCV GT1b wild-type replicon; experiment: Assay Example 1: activity against HCV GT1b wild-type replicon (luciferase, transient transfection); type: cell-based; conditions: Hepatitis C virus, 72 h, Huh 7 cells, 3 days
Protocol: as §1, §2, §3, §4, §5, §6

Row | Compound | Liver concentration ([1]; 0.5 h) | Plasma concentration ([1]; 0.5 h) | Liver concentration ([1]; 3 h) | Plasma concentration ([1]; 3 h) | Liver concentration ([1]; 8 h) | Plasma concentration ([1]; 8 h) | Kp at 0.5 h ([1]; 0.5 h) | Kp at 3 h ([1]; 3 h) | Kp at 8 h ([1]; 8 h) | EC50 [2] | GT1a-NS5A-L31V Fold change [3] | EC50 [3] | EC50 [4] | EC50 [5] | EC50 [6] | EC50 [7]
1 | COC(=O)N[C@H](C(=O)N1CCC[C@H]1C(=O)Nc1ccc([C@@H]2CC[C@@H](c3ccc(NC(=O)[C@@H]4CCCN4C(=O)[C@@H](NC(=O)OC)[C@@H](C)OC)cc3)N2c2cc(F)c(N3CC[Si](C)(C)CC3)c(F)c2)cc1)[C@@H](C)OC [Compound 1a, Methyl ((2S,2′S,3R,3′R)-((2S,2′S)-(((((2S,5S)-1-(4-(4,4-dimethylazasilinan-1-yl)-3,5-difluorophenyl)pyrrolidin-2,5-diyl)bis(4,1-phenylene))bis(azanediyl))bis(carbonyl))bis(pyrrolidin-2,1-diyl))bis(3-methoxy-1-oxobutan-1,2-diyl))dicarbamate] | 384 ± 121 | 54.7 ± 7.82 | 1711 ± 485 | 70.1 ± 20.6 | 1087 ± 822 | 59 ± 33.7 | 7.01 | 24.4 | 18.4 | 7.7 pM | 40.9 | 27 pM | 3 pM | – | – | –
2 | COC(=O)N[C@H](C(=O)N1CCC[C@H]1C(=O)Nc1ccc([C@H]2CC[C@H](c3ccc4nc([C@@H]5CCCN5C(=O)[C@@H](NC(=O)OC)[C@@H](C)OC)[nH]c4c3)N2c2cc(F)c(N3CC[Si](C)(C)CC3)c(F)c2)cc1)[C@@H](C)OC [Compound 6b] | 212 ± 57.2 | 19.8 ± 8.31 | 495 ± 171 | 34.8 ± 14.7 | 77.5 ± 20.6 | 5.82 ± 0.99 | 10.7 | 14.2 | 13.3 | 6.2 pM | 10.0 | 22 pM | 2.4 pM | 2.2 pM | 1.37 pM | 6.7 pM
